Assay results as given in US5350866A, “10-desacetoxytaxol derivatives” (Bristol-Myers Squibb Company, priority 1992, dated 1994).

Columns and labels:
[1] = tested on: HCT-116 human colon carcinoma cells; assay: In vitro cytotoxicity (XTT assay), HCT-116; details: HCT-116, 72 h, read-out: IC50 HCT-116
[2] = tested on: HCT-116/VM46 human colon carcinoma cells; assay: In vitro cytotoxicity (XTT assay), teniposide-resistant, multidrug resistance phenotype HCT-116/VM46

Row | Compound | IC50 [1] [nM] | IC50 ([2]; Homo sapiens, HCT-116/VM46, 72 h, read-out: IC50 HCT-116/VM46) [nM] | fold resistance relative to HCT116 cells ([2]; value in parenthesis, HCT-116/VM46 relative to HCT116 cells, 4320 min)
1 | CC(=O)O[C@H]1C(=O)[C@@]2(C)[C@H]([C@H](OC(=O)c3ccccc3)[C@]3(O)C[C@H](OC(=O)[C@H](O)[C@@H](NC(=O)c4ccccc4)c4ccccc4)C(C)=C1C3(C)C)[C@]1(OC(C)=O)CO[C@@H]1C[C@@H]2O [Taxol] | 4 | 440 | 124
2 | CC(=O)O[C@@]12CO[C@@H]1C[C@H](O)[C@@]1(C)C(=O)CC3=C(C)[C@@H](OC(=O)[C@H](O)[C@@H](NC(=O)c4ccccc4)c4ccccc4)C[C@@](O)([C@@H](OC(=O)c4ccccc4)[C@H]21)C3(C)C [10-Desacetoxytaxol] | 8 |  | 
